Laboratory results as given in US7893071B2, “Synthesis and evaluation of novel phthalimide mimics as anti-angiogenic” (University of Virginia Patent Foundation, priority 2001, dated 2011).

Tests used:
[1] = test system: human vascular endothelial cells (HUVECS); assay: Endothelial cell proliferation assay ([3H]-thymidine incorporation); assay type: cell-based; details: HUVEC, 20% serum, preliminary IC50 data, read-out: Inhibition of Endothelial Cell Proliferation (IC50 μM)
Description: Endothelial Cell Proliferation Assay.
The human vascular endothelial cells (HUVECS) were cultured to peri-confluence (80%) in 20% serum and treated with thalidomide (standard) or its analog (40-400 μM). After 20 h, [^3H]-thymidine (2 μCi/ml) was added to the culture medium for 2-4 h. The [^3H]-thymidine incorporation was stopped with ice-cold PBS (3 washes) and the cells were incubated with cold 10% trichloroacetic acid (TCA) for 10 min at 4° C. The cells were further incubated with TCA at room temperature for 10 min and washed three times with PBS. The cells were solubilized overnight with 1N NaOH and neutralized with an equivalent amount of 1N HCl before radioactivity was determined. The anti-proliferative activity of thalidomide or its analog was computed as a percent inhibition of HUVECS mitogenic response to 20% serum (fetal calf serum).

[2] = test system: corneal angiogenesis induced by vascular endothelial growth factor (VEGF); details: cited from earlier work
[3] = test system: angiogenesis induced by basic fibroblast growth factor (bFGF); details: cited from earlier work
angiogenesis = details: oral; cited from earlier work
endothelial cells = details: in vitro; cited from earlier work

Structure (SMILES)	IC50 [1] [µM]	further results
O=C1CCC(N2C(=O)c3ccccc3C2=O)C(=O)N1 (stereo not drawn) [Compound 1, thalidomide]	200	inhibition of corneal angiogenesis ([2]; rabbits, pellet with 500 or 750 ng VEGF, two daily feedings of 200 mg/kg, after the 5th day of treatment, P<0.0001): statistically significant inhibition; effect on angiogenesis, bFGF induced corneal micropocket ([3]; rabbit): inhibitory effects; effect on angiogenesis, orally in mice models (angiogenesis): inhibitory effects; endothelial cell proliferation in treated cultures (endothelial cells): significant decrease
O=C1c2ccccc2C(=O)N1C1CCCc2ccccc21 (stereo not drawn) [Compound 7]	> 400	
CCC(c1cccc2ccccc12)N1C(=O)c2ccccc2C1=O (stereo not drawn) [Compound 29]	45	
Cc1cc(N)ccc1N1C(=O)c2ccc(Cl)cc2C1=O [Compound 51]	350	
CCOc1ccccc1N1C(=O)c2ccccc2C1=O [Compound 50]	110	
O=C1CC(N2C(=O)c3ccccc3C2=O)CC(=O)O1 [Compound 52]	> 400	
CCCCCCC(c1ccc(OC)c(OC)c1)N1C(=O)c2ccccc2C1=O (stereo not drawn) [Compound 32]	< 38.5	
O=C1c2ccccc2C(=O)N1c1ccc2c(c1)CCC2 [Compound 5]	85	
O=C1CC[C@H](N2C(=O)c3ccccc3C2=O)C(=O)N1 (single isomer, unassigned) [S(−)-enantiomer of thalidomide]		anti-angiogenic activity of enantiomers, VEGF-induced corneal neovascularization ([2]; comparison of enantiomers): strongest anti-angiogenic activity; anti-angiogenic activity of enantiomers, bFGF-induced corneal neovascularization ([3]; comparison of enantiomers): strongest anti-angiogenic activity
O=C1NC(=O)c2c1cccc2[N+](=O)[O-] [Compound 53]	> 400	
